Assays:
[1] = target: T1, muscle glycogen phosphorylase b (Mus musculus, UniProt Q9WUB3); experiment: Glycogen phosphorylase assay; assay type: biochemical; conditions: concentrations up to 100 μM; data not shown
T1 construct: made in house; host or cells: E. coli
From the text: (§1) Supplemental Experimental Procedures:
(§2) Materials. Compounds 2 and 13 were synthesised by PeakDale Molecular and Natalia Shpiro (MRC-PPU, Dundee), respectively, as described previously (Gomez-Galeno, et al., 2010).
(§3) A769662 was from Selleck Chemicals and AICAR from Toronto Research Chemicals. Mouse FBP1, PYGM and PFK1 (muscle isoform) were cloned, expressed and purified from E.coli using standard techniques. AMPD was purified from chicken muscle (Smiley, et al., 1967).
(§4) PP2Cα expressed in E.coli was from the Division of Signal Transduction Therapy (DSTT, Dundee). Peptides were synthesised by GL Biochem (Shanghai). [γ-32P]-ATP, [1-14C]-acetic acid and [9,10-3H(N)]-palmitic acid were from PerkinElmer. pS79 ACC1 (#3661), ACC1 […]
(§5) antibodies were purchased from Cell Signaling Technology. Anti-AMPKα1 (07-350) and AMPKα2 (07-363) used for immunoblotting were from Merck-Millipore. Anti-AMPKγ1 was from Origene (clone Y308). Anti-AMPKγ2 was from Epitomics (S1562). Anti-tubulin (B-5-1-2), anti-FLAG (F7425) and anti-FLAG M2 agarose were from Sigma. Anti-HA (HA.11) was from Covance Research Products. AMPKα1/2 antibodies used for immunoprecipitation kinase assays were described previously (Sakamoto, et al., 2006). […]
(§6) AMPK preparations. […] Isolated human AMPKα subunits were expressed as N-terminal GST-fusions in E.coli and activated as described for heterotrimeric complexes. […]

AMP deaminase-1 = experiment: AMPD1 assay; assay type: biochemical, chicken; conditions: concentrations up to 100 μM; data not shown
From the text: as §1, §2, §3, §4, §5, §6

T1 sequence (Q9WUB3 whole entry): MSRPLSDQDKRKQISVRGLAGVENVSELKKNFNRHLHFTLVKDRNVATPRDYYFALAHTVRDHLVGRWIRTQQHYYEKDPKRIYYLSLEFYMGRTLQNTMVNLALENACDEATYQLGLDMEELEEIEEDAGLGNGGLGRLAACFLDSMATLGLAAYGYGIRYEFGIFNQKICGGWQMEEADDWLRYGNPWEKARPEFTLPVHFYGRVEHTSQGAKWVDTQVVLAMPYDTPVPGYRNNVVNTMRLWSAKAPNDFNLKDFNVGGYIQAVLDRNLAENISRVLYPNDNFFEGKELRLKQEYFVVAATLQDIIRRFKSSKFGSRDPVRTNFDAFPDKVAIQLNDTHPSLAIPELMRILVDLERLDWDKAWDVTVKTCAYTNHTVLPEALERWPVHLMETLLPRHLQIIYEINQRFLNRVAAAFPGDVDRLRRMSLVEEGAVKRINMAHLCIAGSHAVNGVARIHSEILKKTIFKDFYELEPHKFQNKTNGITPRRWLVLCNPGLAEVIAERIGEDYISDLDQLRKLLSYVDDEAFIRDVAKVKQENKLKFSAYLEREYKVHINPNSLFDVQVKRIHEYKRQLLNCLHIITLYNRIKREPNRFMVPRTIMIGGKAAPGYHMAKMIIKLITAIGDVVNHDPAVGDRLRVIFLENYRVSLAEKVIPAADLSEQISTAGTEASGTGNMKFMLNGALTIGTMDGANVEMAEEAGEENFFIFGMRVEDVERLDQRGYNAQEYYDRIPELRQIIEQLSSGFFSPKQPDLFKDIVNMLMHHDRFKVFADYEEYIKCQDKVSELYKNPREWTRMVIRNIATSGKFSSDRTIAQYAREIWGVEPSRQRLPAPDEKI

O=P(O)(O)c1ccc(-c2cc(O)on2)o1 [Compound C2, 5-(5-hydroxyl-isoxazol-3-yl)-furan-2-phosphonic acid]
effect on enzyme activity [1]: None of these enzymes were affected | effect on enzyme activity (AMP deaminase-1): None of these enzymes were affected
